Measurements taken from patent US20260022142A1, “MACROCYCLIC IMMUNOMODULATORS” (Bristol-Myers Squibb Company, priority 2022, published 2026).
pIC50: −log10 of the molar value. Bridge positions count the residues as written; N and C are the ends. Square brackets hold non-standard residues; d marks the D form. Peptide text beside a SMILES is read from it. * marks the point of attachment. Phe(4-COOH) = N[C@@H](Cc1ccc(C(=O)O)cc1)C(=O)O; Bip = N[C@@H](Cc1ccc(-c2ccccc2)cc1)C(=O)O; Phe(3-Me) = Cc1cccc(C[C@H](N)C(=O)O)c1; Bta = N[C@@H](Cc1csc2ccccc12)C(=O)O; hArg = N=C(N)NCCCC[C@H](N)C(=O)O; 4Pal = N[C@@H](Cc1ccncc1)C(=O)O; Cha = N[C@@H](CC1CCCCC1)C(=O)O; 3Abz = Nc1cccc(C(=O)O)c1; Carboxymethyl = O=C(O)C*; Orn = NCCC[C@H](N)C(=O)O; Aun = NCCCCCCCCCCC(=O)O; Dab = NCC[C@H](N)C(=O)O; Dap = NC[C@H](N)C(=O)O; AEEA = NCCOCCOCC(=O)O

Target: T1, PD-1/PD-L1 interaction (PE-labeled human PD-L1-Ig binding to Jurkat cell line over-expressing human PD-1) (Homo sapiens, UniProt Q15116)
T1 construct: expressed in transfected cells; host or cells: Jurkat
Assay: Jurkat-PD-1 Cell Binding High-Content Screening Assay (CBA)
Assay type: cell-based
Conditions: Jurkat cell line over-expressing human PD-1; PE-labeled PD-L1-Ig 20 nM final; read-out: Jurkat hPD1-PDL1 IC50
In short: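 Binding of fluorescent PD-L1-Ig (20 nM final) to Jurkat-PD-1 cells was measured by automated imaging after 1 h, following a 2 h compound pre-treatment at 37° C.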

T1 sequence (Q15116 25-288): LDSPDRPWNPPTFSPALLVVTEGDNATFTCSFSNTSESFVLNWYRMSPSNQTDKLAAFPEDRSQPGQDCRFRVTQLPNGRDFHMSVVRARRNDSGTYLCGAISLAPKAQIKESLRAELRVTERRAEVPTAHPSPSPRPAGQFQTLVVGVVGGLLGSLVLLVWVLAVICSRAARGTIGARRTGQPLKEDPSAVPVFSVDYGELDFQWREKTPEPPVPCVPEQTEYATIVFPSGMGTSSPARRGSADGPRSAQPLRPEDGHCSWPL

| SMILES | pIC50 |
| --- | --- |
| Cc1cccc(C[C@@H]2NC(=O)[C@H](CC(=O)O)NC(=O)[C@H](Cc3ccc(OCC(=O)O)cc3)NC(=O)[C@H](CN)NC(=O)CSC[C@@H](C(=O)N[C@@H](CCN)C(=O)NCCOCCOCC(=O)NCCCCCCCCCCC(=O)O)NC(=O)[C@H](CCCN)NC(=O)[C@H](C(C)C)NC(=O)[C@H](CC3CCCCC3)NC(=O)[C@H](CCN)NC(=O)[C@@H](CC(C)C)NC(=O)[C@H](CCCN)NC(=O)[C@H](Cc3ccc(OCC(=O)O)cc3)NC(=O)[C@H](Cc3ccc(-c4ccccc4)cc3)NC(=O)[C@H](Cc3ccc(OCC(=O)O)cc3)NC2=O)c1 [Compound 2860] ({CH2CO}-[Dap]Y(Carboxymethyl)D[Phe(3-Me)]Y(Carboxymethyl)[Bip]Y(Carboxymethyl)[Orn][dL][Dab][Cha]V[Orn]C[Dab][AEEA][Aun]-OH; thioether N-14) | 7.95 |
| CC(C)C[C@H]1NC(=O)[C@H](CCCN)NC(=O)[C@H](C(C)C)NC(=O)[C@H](Cc2ccc(-c3ccccc3)cc2)NC(=O)[C@H](C(C)C)NC(=O)[C@H](Cc2csc3ccccc23)NC(=O)[C@H](CC(=O)O)NC(=O)[C@H](Cc2ccc(OCC(=O)O)cc2)NC(=O)[C@H](CCCCNC(=N)N)NC(=O)CSC[C@@H](C(=O)NCCOCCOCC(=O)N[C@@H](CCCN)C(=O)NCCCCCCCCCCC(=O)O)NC(=O)[C@H](CO)NC(=O)[C@H](C(C)C)NC(=O)[C@H](CC2CCCCC2)NC(=O)[C@H](CCN)NC1=O [Compound 3066] ({CH2CO}-[hArg]Y(Carboxymethyl)D[Bta]V[Bip]V[Orn][dL][Dab][Cha]VSC[AEEA][Orn][Aun]-OH; thioether N-14) | 7.77 |
| CC(C)C[C@H]1NC(=O)[C@H](CCCN)NC(=O)[C@H](C(C)C)NC(=O)[C@H](Cc2ccc(-c3ccccc3)cc2)NC(=O)[C@H](C(C)C)NC(=O)[C@H](Cc2c[nH]c3ccccc23)NC(=O)[C@H](CC(=O)O)NC(=O)[C@H](Cc2ccc(C(=O)O)cc2)NC(=O)[C@H](Cc2ccc(OCC(=O)O)cc2)NC(=O)CSC[C@@H](C(=O)N[C@@H](CCCCN)C(=O)NCCOCCOCC(=O)NCCCCCCCCCCC(=O)O)NC(=O)[C@H](CCCCN)NC(=O)[C@H](C(C)C)NC(=O)[C@H](CC2CCCCC2)NC(=O)[C@H](CCN)NC1=O [Compound 2523] ({CH2CO}-Y(Carboxymethyl)[Phe(4-COOH)]DWV[Bip]V[Orn][dL][Dab][Cha]VKCK[AEEA][Aun]-OH; thioether N-14) | 8.12 |

Second part, the molecule after the results:

| pIC50 | SMILES |
| --- | --- |
| 6.99 | CC[C@H](C)[C@@H]1NC(=O)[C@H](Cc2ccc(-c3ccccc3)cc2)NC(=O)[C@H](C(C)C)NC(=O)[C@H](Cc2cccc(C)c2)NC(=O)[C@H](CC(=O)O)NC(=O)[C@H](Cc2ccc(C(=O)O)cc2)NC(=O)[C@H](Cc2ccncc2)NC(=O)CSC[C@@H](C(=O)N[C@@H](CCCNC(=N)N)C(=O)NCCCCCCCCCCC(=O)O)NC(=O)[C@H]([C@@H](C)O)NC(=O)[C@H](C(C)C)NC(=O)[C@H](CC2CCCCC2)NC(=O)[C@H](CCN)NC(=O)[C@@H](CC(C)C)NC(=O)[C@H](CCCN)NC1=O [Compound 1186] |
| 6.20 | CC(C)C[C@@H]1NC(=O)[C@H](Cc2c[nH]c3ccccc23)NC(=O)[C@H](CC(=O)O)NC(=O)[C@H](Cc2ccncc2)NC(=O)[C@H](Cc2ccc(OCC(=O)O)cc2)NC(=O)CSC[C@@H](C(=O)Nc2cccc(C(=O)NCCCCCCCCCCC(=O)O)c2)NC(=O)[C@H](CN)NC(=O)[C@H](C(C)C)NC(=O)[C@H](CC2CCCCC2)NC(=O)[C@H](CCN)NC(=O)[C@@H](CC(C)C)NC(=O)[C@H](CCCN)NC(=O)[C@H](C(C)C)NC(=O)[C@H](Cc2ccc(-c3ccccc3)cc2)NC1=O [Compound 1282] ({CH2CO}-Y(Carboxymethyl)[4Pal]DWL[Bip]V[Orn][dL][Dab][Cha]V[Dap]C[3Abz][Aun]-OH; thioether N-14) |
